These compounds were tested against T1, RORγt (Homo sapiens, UniProt P51449) (assay: Fluorescence resonance energy transfer (FRET) test, inhibitory activity of RORγt). Conditions: FRET, B-RORγt LBD / Biotin-SRC1; read-out: IC50.
T1 construct: […]
T1 sequence (P51449 269-508 limits assumed): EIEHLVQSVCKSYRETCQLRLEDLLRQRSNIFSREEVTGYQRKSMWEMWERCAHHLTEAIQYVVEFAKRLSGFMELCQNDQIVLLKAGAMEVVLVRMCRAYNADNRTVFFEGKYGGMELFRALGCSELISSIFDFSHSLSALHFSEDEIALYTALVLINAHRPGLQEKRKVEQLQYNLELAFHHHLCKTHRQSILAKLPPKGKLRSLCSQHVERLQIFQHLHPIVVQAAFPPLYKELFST
Assay type: biochemical
For `CCS(=O)(=O)c1ccc([C@H](CC#N)NC(=O)c2ccc(N3C[C@@H](Oc4ccc(-n5cnc(C)c5)cc4)C[C@H]3COC(F)F)cc2)cc1` [Example 45, N—((S)-2-cyano-1-(4-(ethylsulfonyl)phenyl)ethyl)-4-((2S,4S)-2-((difluoromethoxy)methyl)-4-(4-(4-methyl-1H-imidazol-1-yl)phenoxy)pyrrolidin-1-yl)benzamide], the IC50 was 43 nM. Compound `CS(=O)(=O)c1ccc([C@H](CC#N)NC(=O)c2ccc(N3C[C@@H](Oc4ccc(C(F)(F)F)cc4)C[C@H]3COC(F)F)cc2)cc1` [Example 62, N-((S)-2-cyano-1-(4-(methylsulfonyl)phenyl)ethyl)-4-((2S,4S)-2-((difluoromethoxy)methyl)-4-(4-(trifluoromethyl)phenoxy)pyrrolidin-1-yl)benzamide] has an IC50 of 22 nM. In the case of `CCS(=O)(=O)c1ccc([C@H](CC#N)NC(=O)c2ccc(N3C[C@@H](Oc4ccc(C(F)(F)F)cc4)C[C@H]3COC(F)F)c(Cl)c2)cc1` [Example 66, 3-chloro-N-((S)-2-cyano-1-(4-(ethylsulfonyl)phenyl)ethyl)-4-((2S,4S)-2-((difluoromethoxy)methyl)-4-(4-(trifluoromethyl)phenoxy)pyrrolidin-1-yl)benzamide], the IC50 is reported as 33 nM. Compound `CCS(=O)(=O)c1ccc([C@H](CC#N)NC(=O)c2ccc(N3C[C@@H](Oc4ccc(C(F)(F)F)cc4)C[C@H]3CCOC(F)F)cc2)cc1` [Example 75, N—((S)-2-cyano-1-(4-(ethylsulfonyl)phenyl)ethyl)-4-((2R,4S)-2-(2-(difluoromethoxy)ethyl)-4-(4-(trifluoromethyl)phenoxy)pyrrolidin-1-yl)benzamide] has an IC50 of 10 nM. In the case of `CCS(=O)(=O)c1ccc([C@H](CC#N)NC(=O)c2ccc(N3C[C@@H](Oc4ccc(C(F)(F)F)cc4)C[C@H]3CCOC(F)(F)F)cc2)cc1` [Example 76, N—((S)-2-cyano-1-(4-(ethylsulfonyl)phenyl)ethyl)-4-((2R,4S)-2-(2-(trifluoromethoxy)ethyl)-4-(4-(trifluoromethyl)phenoxy)pyrrolidin-1-yl)benzamide], the IC50 is reported as 18 nM. `CCOC[C@@H]1C[C@H](Oc2ccc(C(F)(F)F)cc2)CN1c1ccc(C(=O)N[C@H](CC#N)c2ccc(S(=O)(=O)CC)cc2)cc1` [Example 77, N—((R)-2-cyano-1-(4-(ethylsulfonyl)phenyl)ethyl)-4-((2S,4S)-2-(ethoxymethyl)-4-(4-(trifluoromethyl)phenoxy)-1-pyrrolidine)benzamide] was tested, and the IC50 was 7 nM. In the case of `CCS(=O)(=O)c1ccc([C@H](CC#N)NC(=O)c2ccc(N3C[C@@H](Oc4ccc5c(c4)OC(F)(F)O5)C[C@H]3COC(F)F)cc2)cc1` [Example 78, N—((S)-2-cyano-1-(4-(ethylsulfonyl)phenyl)ethyl)-4-((2S,4S)-4-((2,2-difluorobenzo[d][1,3]dioxol-5-yl)oxy)-2-((difluoromethoxy)methyl)pyrrolidin-1-yl)-benzamide], the IC50 is reported as 12 nM. `CCS(=O)(=O)c1ccc([C@H](CC#N)NC(=O)c2ccc(N3C[C@@H](OC4CCC(C(F)(F)F)CC4)C[C@H]3COC(F)F)cc2)cc1` (stereo partly drawn) [Example 89, N—((S)-2-cyano-1-(4-(ethylsulfonyl)phenyl)ethyl)-4-((2S)-2-((difluoromethoxy)methyl)-4-((4-(trifluoromethyl)cyclohexyl)oxy)pyrrolidin-1-yl)benzamide] was tested, and the IC50 was 14 nM. With `CCS(=O)(=O)c1ccc([C@H](COCC(=O)O)NC(=O)c2ccc(N3C[C@@H](Oc4ccc(C(F)(F)F)cc4)C[C@H]3COC(F)F)cc2)cc1` [Example 90, 2-((R)-2-(4-((2S,4S)-2-((difluoromethoxy)methyl)-4-(4-(trifluoromethyl)phenoxy)pyrrolidin-1-yl)benzoylamino)-2-(4-(ethylsulfonyl)phenyl)ethoxy)acetic Acid] the IC50 was 9 nM. For `CCS(=O)(=O)c1ccc([C@H](CC(=O)O)NC(=O)c2ccc(N3C[C@@H](Oc4ccc(C(F)(F)F)cc4)C[C@H]3COC(F)F)cc2)cc1` [Example 92, (S)-3-(4-((2S,4S)-2-((difluoromethoxy)methyl)-4-(4-(trifluoromethyl)phenoxy)pyrrolidin-1-yl)benzoylamino)-3-(4-(ethylsulfonyl)phenyl)propionic Acid], the IC50 was 21 nM. For `CCS(=O)(=O)c1ccc([C@H](CC(=O)NO)NC(=O)c2ccc(N3C[C@@H](Oc4ccc(C(F)(F)F)cc4)C[C@H]3COC(F)F)cc2)cc1` [Example 93], the IC50 was 13 nM. `CCS(=O)(=O)c1ccc([C@H](CC(=O)NC)NC(=O)c2ccc(N3C[C@@H](Oc4ccc(C(F)(F)F)cc4)C[C@H]3COC(F)F)cc2)cc1` [Example 94] was tested, and the IC50 was 31 nM. `CCS(=O)(=O)c1ccc([C@H](CC(=O)N(C)C)NC(=O)c2ccc(N3C[C@@H](Oc4ccc(C(F)(F)F)cc4)C[C@H]3COC(F)F)cc2)cc1` [Example 95] gave an IC50 of 77 nM. For `CCS(=O)(=O)c1ccc([C@H](CC(=O)OC)NC(=O)c2ccc(N3C[C@@H](Oc4ccc(C(F)(F)F)cc4)C[C@H]3COC(F)(F)F)cc2)cc1` [Example 96, methyl (S)-3-(4-(ethylsulfonyl)phenyl)-3-(4-((2S,4S)-2-((trifluoromethoxy)methyl)-4-(4-(trifluoromethyl)phenoxy)pyrrolidin-1-yl)benzamido)propionate], the IC50 was 31 nM. `CCS(=O)(=O)c1ccc([C@H](CC(=O)OC)NC(=O)c2ccc(N3C[C@@H](Oc4ccc(C(F)(F)F)cc4)C[C@H]3COC(F)F)cc2)cc1` [Example 97, methyl (S)-3-(4-((2S,4S)-2-((difluoromethoxy)methyl)-4-(4-(trifluoromethyl)phenoxy)pyrrolidin-1-yl)benzoylamino)-3-(4-(ethylsulfonyl)phenyl)propionate] gave an IC50 of 21 nM. Compound `CCS(=O)(=O)c1ccc([C@H](CC(N)=O)NC(=O)c2ccc(N3C[C@@H](Oc4ccc(C(F)(F)F)cc4)C[C@H]3COC(F)F)cc2)cc1` [Example 98, N—((S)-3-amino-1-(4-(ethylsulfonyl)phenyl)-3-oxopropyl)-4-((2S,4S)-2-((difluoromethoxy)methyl)-4-(4-(trifluoromethyl)phenoxy)pyrrolidin-1-yl)benzamide] has an IC50 of 21 nM. For `CCS(=O)(=O)c1ccc([C@H](CC(=O)NCC(=O)OC)NC(=O)c2ccc(N3C[C@@H](Oc4ccc(C(F)(F)F)cc4)C[C@H]3COC(F)F)cc2)cc1` [Example 99, methyl 2-((S)-3-(4-((2S,4S)-2-((difluoromethoxy)methyl)-4-(4-(trifluoromethyl)phenoxy)pyrrolidin-1-yl)benzoylamino)-3-(4-(ethylsulfonyl)phenyl)propionamido)acetate], the IC50 was 25 nM. With `CCS(=O)(=O)c1ccc([C@H](CC(=O)NCC(=O)O)NC(=O)c2ccc(N3C[C@@H](Oc4ccc(C(F)(F)F)cc4)C[C@H]3COC(F)F)cc2)cc1` [Example 100, 2-((S)-3-(4-((2S,4S)-2-((difluoromethoxy)methyl)-4-(4-(trifluoromethyl)phenoxy)pyrrolidin-1-)benzoylamino)-3-(4-(ethylsulfonyl)phenyl)propionamido)acetic Acid] the IC50 was 14 nM. `CCS(=O)(=O)c1ccc([C@@H](NC(=O)c2ccc(N3C[C@@H](Oc4ccc(C(F)(F)F)cc4)C[C@H]3COC(F)F)cc2)C(=O)O)cc1` [Example 102, (R)-2-(4-((2S,4S)-2-((difluoromethoxy)methyl)-4-(4-(trifluoromethyl)phenoxy)pyrrolidin-1-yl)benzoylamino)-2-(4-(ethylsulfonyl)phenyl)acetic Acid] showed an IC50 of 4 nM. For `CCS(=O)(=O)c1ccc([C@H](CN(C)C)NC(=O)c2ccc(N3C[C@@H](Oc4ccc(C(F)(F)F)cc4)C[C@H]3COC(F)F)cc2)cc1` [Example 103], the IC50 was 60 nM. For `CCS(=O)(=O)c1ccc([C@H](COCCOC)NC(=O)c2ccc(N3C[C@@H](Oc4ccc(C(F)(F)F)cc4)C[C@H]3COC(F)F)cc2)cc1` [Example 104], the IC50 was 12 nM. `CCS(=O)(=O)c1ccc([C@H](CCC(=O)O)NC(=O)c2ccc(N3C[C@@H](Oc4ccc(C(F)(F)F)cc4)C[C@H]3COC(F)F)cc2)cc1` [Example 105, (S)-4-(4-((2S,4S)-2-((difluoromethoxy)methyl)-4-(4-(trifluoromethyl)phenoxy)pyrrolidin-1-yl)benzoylamino)-4-(4-(ethylsulfonyl)phenyl)butyric Acid] showed an IC50 of 7 nM. Compound `CCS(=O)(=O)c1ccc([C@H](CCCC(=O)O)NC(=O)c2ccc(N3C[C@@H](Oc4ccc(C(F)(F)F)cc4)C[C@H]3COC(F)F)cc2)cc1` [Example 106, (S)-5-(4-((2S,4S)-2-((difluoromethoxy)methyl)-4-(4-(trifluoromethyl)phenoxy)pyrrolidin-1-yl)benzoylamino)-5-(4-(ethylsulfonyl)phenyl)valeric Acid] has an IC50 of 52 nM. Work on `CCOC[C@H]1CC[C@@H](c2ccc(C(F)(F)F)cc2)CN1c1ccc(C(=O)N[C@H](CC#N)c2ccc(S(=O)(=O)CC)cc2)cc1` [Example 108-2, N—((R)-2-cyano-1-(4-(ethylsulfonyl)phenyl)ethyl)-4-((2R,5S)-2-(ethoxymethyl)-5-(4-(trifluoromethyl)phenyl)piperidin-1-yl)benzamide] yielded an IC50 of 24 nM. For `CCS(=O)(=O)c1ccc([C@@H](CC#N)NC(=O)c2ccc(N3C[C@@H](c4ccc(C(F)(F)F)cc4)CC[C@H]3COCC3CC3)cc2)cc1` [Example 109-1, N—((R)-2-cyano-1-(4-(ethylsulfonyl)phenyl)ethyl)-4-((2S,5R)-2-((cyclopropylmethoxy)methyl)-5-(4-(trifluoromethyl)phenyl)piperidin-1-yl)benzamide], the IC50 was 7 nM. With `CCC(F)(F)OC[C@@H]1CC[C@H](c2ccc(C(F)(F)F)cc2)CN1c1ccc(C(=O)N[C@H](CC#N)c2ccc(S(=O)(=O)CC)cc2)cc1` [Example 110-1, N—((R)-2-cyano-1-(4-(ethylsulfonyl)phenyl)ethyl)-4-((2S,5R)-2-((1,1-difluoropropoxy)methyl)-5-(4-(trifluoromethyl)phenyl)piperidin-1-yl)benzamide] the IC50 was 19 nM.

Reference: patent publication US20230121086A1, “RORgT INHIBITOR, PREPARATION METHOD THEREOF AND USE THEREOF” (SUNSHINE LAKE PHARMA CO., LTD., priority 2020, published 2023)
